In PubChem BioAssay (NCI):
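GI50 is the concentration that inhibits growth by half. TGI: concentration producing complete growth inhibition.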

Columns and labels:
Test in all cases: growth of human tumour cells (NCI), 384-well format
[1] = test system: MCF7 breast
[2] = test system: OVCAR-3 ovarian
[3] = test system: NCI-H322M lung
[4] = test system: OVCAR-5 ovarian
[5] = test system: HL-60(TB) leukemia
[6] = test system: EKVX NSCLC
[7] = test system: KM12 colon
[8] = test system: HCT-15 colon
[9] = test system: MOLT-4 leukemia
[10] = test system: HOP-92 NSCLC
[11] = test system: SNB-75 CNS
[12] = test system: SN12C renal
[13] = test system: UACC-257 melanoma
[14] = test system: CCRF-CEM leukemia
[15] = test system: IGROV1 ovarian
[16] = test system: NCI-H460 NSCLC
[17] = test system: MDA-MB-231 breast
[18] = test system: BT-549 breast
[19] = test system: OVCAR-4 ovarian
[20] = test system: SK-OV-3 ovarian
[21] = test system: MALME-3M melanoma
[22] = test system: TK-10 renal
[23] = test system: OVCAR-8 ovarian
[24] = test system: DU-145 prostate
[25] = test system: UO-31 renal
[26] = test system: SF-268 CNS
[27] = test system: NCI-H23 lung
[28] = test system: RXF 393 renal
[29] = test system: U251 glioblastoma
[30] = test system: SK-MEL-5 melanoma
[31] = test system: HS 578T breast
[32] = test system: A549 NSCLC
[33] = test system: COLO 205 colon
[34] = test system: NCI-H226 lung
[35] = test system: SF-539 CNS
[36] = test system: MDA-MB-435 melanoma
[37] = test system: HCT-116 colon
[38] = test system: M14 melanoma
[39] = test system: RPMI-8226 leukemia
[40] = test system: HCC-2998 colon
[41] = test system: NCI/ADR-RES ovarian
[42] = test system: NCI-H522 lung
[43] = test system: PC-3 prostate
[44] = test system: CAKI-1 renal
[45] = test system: HOP-62 NSCLC
[46] = test system: MDA-MB-468 breast
[47] = test system: UACC-62 melanoma
[48] = test system: SK-MEL-28 melanoma
[49] = test system: SF-295 CNS
[50] = test system: HT29 colon
[51] = test system: 786-0 renal
[52] = test system: T-47D breast
[53] = test system: A498 renal
[54] = test system: K-562 leukemia
[55] = test system: ACHN renal
[56] = test system: LOX IMVI melanoma
[57] = test system: SW-620 colon
[58] = test system: SNB-19 CNS

Compound CN1CCN(c2ccc(C(=O)Nc3cc(-c4cccc(NS(=O)(=O)c5ccccc5)c4)[nH]n3)cc2)CC1 has a GI50 [1] of 1410 nM, a TGI [1] of 2920 nM and a GI50 [2] of 1620 nM. For the same compound, the TGI [2] was 3.03 µM, the GI50 [3] was 1930 nM and the TGI [3] was 4.22 µM. It also gave a GI50 [4] of 1890 nM, a TGI [4] of 3.94 µM and a GI50 [5] of 2480 nM. It also gave a TGI [5] of 3.96 µM, a GI50 [6] of 2100 nM and a TGI [6] of 4.87 µM. For the same compound, the GI50 [7] was 25 nM, the TGI [7] was 1380 nM and the GI50 [8] was 3.5 µM. For the same compound, the TGI [8] was 8.85 µM, the GI50 [9] was 1200 nM and the TGI [9] was 2440 nM. For the same compound, the GI50 [10] was 1370 nM, the TGI [10] was 2870 nM and the GI50 [11] was 949 nM. It also gave a TGI [11] of 2370 nM, a GI50 [12] of 2440 nM and a TGI [12] of 8.74 µM. For the same compound, the GI50 [13] was 1780 nM, the TGI [13] was 3.18 µM and the GI50 [14] was 1620 nM. It also gave a TGI [14] of 2990 nM, a GI50 [15] of 628 nM and a TGI [15] of 1930 nM. It also gave a GI50 [16] of 1690 nM, a TGI [16] of 3.15 µM and a GI50 [17] of 1520 nM. It also gave a TGI [17] of 3.3 µM, a GI50 [18] of 1170 nM and a TGI [18] of 2420 nM. It also gave a GI50 [19] of 1790 nM, a TGI [19] of 4.07 µM and a GI50 [20] of 1160 nM. The TGI [20] was 2440 nM, the GI50 [21] was 1640 nM and the TGI [21] was 3.01 µM. For the same compound, the GI50 [22] was 2270 nM, the TGI [22] was 4.56 µM and the GI50 [23] was 1810 nM. The TGI [23] was 3.35 µM, the GI50 [24] was 2330 nM and the TGI [24] was 4.97 µM. It also gave a GI50 [25] of 3.69 µM, a TGI [25] of 10.4 µM and a GI50 [26] of 1230 nM. The TGI [26] was 2700 nM, the GI50 [27] was 1910 nM and the TGI [27] was 3.75 µM. For the same compound, the GI50 [28] was 1240 nM, the TGI [28] was 2520 nM and the GI50 [29] was 1640 nM. For the same compound, the TGI [29] was 3.03 µM, the GI50 [30] was 1460 nM and the TGI [30] was 2790 nM. It also gave a GI50 [31] of 1310 nM, a TGI [31] of 2600 nM and a GI50 [32] of 1780 nM. The TGI [32] was 3.3 µM, the GI50 [33] was 891 nM and the TGI [33] was 2140 nM. The GI50 [34] was 111 nM, the TGI [34] was 11.6 µM and the GI50 [35] was 838 nM. The TGI [35] was 2110 nM, the GI50 [36] was 1960 nM and the TGI [36] was 3.41 µM. It also gave a GI50 [37] of 1660 nM, a TGI [37] of 3.08 µM and a GI50 [38] of 1650 nM. The TGI [38] was 3.03 µM, the GI50 [39] was 1450 nM and the TGI [39] was 2780 nM. For the same compound, the GI50 [40] was 1470 nM, the TGI [40] was 3.01 µM and the GI50 [41] was > 100 µM. For the same compound, the TGI [41] was > 100 µM, the GI50 [42] was 1880 nM and the TGI [42] was 3.55 µM. The GI50 [43] was 2570 nM, the TGI [43] was 7.41 µM and the GI50 [44] was 1670 nM. It also gave a TGI [44] of 3.08 µM, a GI50 [45] of 1590 nM and a TGI [45] of 3.31 µM. The GI50 [46] was 2090 nM, the TGI [46] was 3.62 µM and the GI50 [47] was 1800 nM. For the same compound, the TGI [47] was 3.2 µM, the GI50 [48] was 2170 nM and the TGI [48] was 3.63 µM. The GI50 [49] was 1890 nM, the TGI [49] was 3.4 µM and the GI50 [50] was 1520 nM. It also gave a TGI [50] of 2930 nM, a GI50 [51] of 1560 nM and a TGI [51] of 2980 nM. For the same compound, the GI50 [52] was 1370 nM, the TGI [52] was 2690 nM and the GI50 [53] was 2070 nM. For the same compound, the TGI [53] was 3.53 µM, the GI50 [54] was 1450 nM and the TGI [54] was 2790 nM. It also gave a GI50 [55] of 2150 nM, a TGI [55] of 4.66 µM and a GI50 [56] of 1620 nM. The TGI [56] was 3.01 µM, the GI50 [57] was 1840 nM and the TGI [57] was 3.33 µM. For the same compound, the GI50 [58] was 2020 nM and the TGI [58] was 4.48 µM.
